The term IC50 denotes the midpoint of a concentration-inhibition curve. A low value points to inhibition by little substance. For orientation: Ki means the dissociation constant of the complex between target and ligand, obtained from inhibition or displacement.

The source made the active and inactive calls. The calls are words filed in the database; no cut-off is given here.

In series [1] the test system is Rattus norvegicus. Briefly: Antiamnesic activity against scopolamine-induced dementia in Wistar rat assessed as basal latency period to reach shock free zone at 0.5 mg/kg, po. The format is functional.
The test system of series [2] is Rattus norvegicus. Briefly: Antiamnesic activity against scopolamine-induced dementia in Wistar rat assessed as latency period to improve memory at 0.5 mg/kg, po. Format: functional.
Series [3] relates to Rattus norvegicus. Briefly: Antiamnesic activity against scopolamine-induced memory loss and learning impairment in Wistar rat assessed as transfer latency period to reach from open arm to closed arm ends measured on day 1 at 0.5 mg/kg, po by elevated plus maze test. The format is functional.
Series [4] concerns Rattus norvegicus. Briefly: Antiamnesic activity against scopolamine-induced memory loss and learning impairment in Wistar rat assessed as transfer latency period to reach from open arm to closed arm ends measured on day 2 at 0.5 mg/kg, po by elevated plus maze test. The format is functional.
Series [5] deals with Rattus norvegicus. Briefly: Antiamnesic activity against scopolamine-induced memory loss and learning impairment in Wistar rat at 0.5 mg/kg, po by Y maze test. Format: functional, organism-based. Further details: dose 0.5 mg/kg.
The test system of series [6] is Rattus norvegicus. Put plainly: Toxicity in po dosed Wistar rat assessed as mortality within 1 week. The conditions noted are these: in vivo, 168 h. Format: organism-based.
Series [7] concerns Rattus norvegicus. Put plainly: Antiamnesic activity against scopolamine-induced dementia in Wistar rat assessed as decrease in occurrence of mistakes at 0.5 mg/kg, po. The format is functional, organism-based. Further details: dose 0.5 mg/kg.
For series [8], the system named is Rattus norvegicus. Put plainly: Cholinergic toxicity in po dosed Wistar rat assessed as occurrence of salivation after 1 week. The format is organism-based. The conditions noted are these: in vivo, 168 h.
Series [9] deals with Rattus norvegicus. Put plainly: Cholinergic toxicity in po dosed Wistar rat assessed as occurrence of defecation after 1 week. The format is organism-based. The conditions noted are these: in vivo, 168 h.
Series [10] deals with T1, Muscarinic acetylcholine receptor M1 (Rattus norvegicus, UniProt P08482).
T1 sequence (P08482 whole entry): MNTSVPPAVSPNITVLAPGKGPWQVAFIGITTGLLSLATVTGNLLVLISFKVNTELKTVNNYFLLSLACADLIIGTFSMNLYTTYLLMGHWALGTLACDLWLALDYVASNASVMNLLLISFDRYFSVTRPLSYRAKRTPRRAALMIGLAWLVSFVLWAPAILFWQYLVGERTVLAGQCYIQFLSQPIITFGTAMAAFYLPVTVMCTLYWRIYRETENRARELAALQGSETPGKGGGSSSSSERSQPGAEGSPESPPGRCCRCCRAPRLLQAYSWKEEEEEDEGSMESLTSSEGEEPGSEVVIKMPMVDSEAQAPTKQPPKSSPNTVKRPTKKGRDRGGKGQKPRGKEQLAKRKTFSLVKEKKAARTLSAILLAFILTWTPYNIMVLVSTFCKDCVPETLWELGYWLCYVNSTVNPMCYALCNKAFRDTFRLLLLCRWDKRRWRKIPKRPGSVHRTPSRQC
Briefly: Displacement of [3H]QNB from muscarinic M1 receptor in Wistar rat brain cortex after 2 hrs by liquid scintillation counting. In general terms: In a radioligand displacement assay an active substance lowers the binding of a labelled ligand.

The target in series [11] is T2, Muscarinic acetylcholine receptor M1 (Rattus norvegicus) (UniProt P08482).
T2 sequence (whole entry): T1 sequence (P08482 whole entry)
Put plainly: Agonist activity at muscarinic M1 receptor in Wistar rat cerebral cortex assessed as [3H]myoinositol (1,4,5)-triphosphate level per gram of protein at 100 uM after 1 hr by liquid scintillation counting. Format: functional, tissue-based.

In the case of `COC(=O)C1=CCCN(C)C1` [ARECOLINE], the Time in the series on Rattus norvegicus [1] was 10 s; with Rattus norvegicus [2], 5 s; in the series on Rattus norvegicus [3], 52 s; in the series with Rattus norvegicus [4], 36 s. Also, the result with Rattus norvegicus [5] was Active. Further, in the series on Rattus norvegicus [6], the Activity entry was “Non-toxic”.

For the compound `CN1CCC=C(C2CN(C(=O)c3ccc(Cl)cc3)CCO2)C1` (stereo unspecified), the outcome with Rattus norvegicus [7] and with Rattus norvegicus [5] was Active. Besides, the Time was 7 s in the series with Rattus norvegicus [1], 3 s with Rattus norvegicus [2], 37 s with Rattus norvegicus [3] and 17 s in the series with Rattus norvegicus [4]. The Activity entry with Rattus norvegicus [8], with Rattus norvegicus [9] and in the series on Rattus norvegicus [6] was “Non-toxic” each time.

In the case of `CN1CCC=C(C2CN(C(=O)c3cc(Cl)ccc3Cl)CCO2)C1` (stereo unspecified), the outcome with Rattus norvegicus [7] and with Rattus norvegicus [5] was Active. Further, the Time is recorded as 11 s in the series on Rattus norvegicus [1], 9 s with Rattus norvegicus [2], 66 s in the series with Rattus norvegicus [3] and 53 s in the series on Rattus norvegicus [4]. In addition, the Activity result in the series on Rattus norvegicus [8], in the series on Rattus norvegicus [9] and with Rattus norvegicus [6] was “Non-toxic” each time.

As to `CN1CCC=C(C2CN(C(=O)c3ccc(C(C)(C)C)cc3)CCO2)C1` (stereo unspecified), the result with Rattus norvegicus [7] and in the series with Rattus norvegicus [5] was Active. In addition, the Time in the series on Rattus norvegicus [1] is 11 s; with Rattus norvegicus [2], 6 s; in the series on Rattus norvegicus [3], 65 s; in the series on Rattus norvegicus [4] it was 53 s. In addition, the Activity entry in the series with Rattus norvegicus [8], in the series on Rattus norvegicus [9] and in the series on Rattus norvegicus [6] was “Non-toxic” each time.

For the compound `CN1CCC=C(C2CN(C(=O)c3ccccc3)CCO2)C1` (stereo unspecified), the result with Rattus norvegicus [7] and with Rattus norvegicus [5] was Active. The Time in the series with Rattus norvegicus [1] stood at 10 s; in the series with Rattus norvegicus [2], 6 s; in the series on Rattus norvegicus [3], 53 s; with Rattus norvegicus [4] it was 35 s. Moreover, the Activity result in the series on Rattus norvegicus [8], in the series with Rattus norvegicus [9] and with Rattus norvegicus [6] was “Non-toxic” each time.

`Cc1ccc(C(=O)N2CCOC(C3=CCCN(C)C3)C2)cc1` (stereo unspecified): the result with Rattus norvegicus [7] and in the series on Rattus norvegicus [5] was Active. For the same compound, the Time came out at 8 s in the series on Rattus norvegicus [1], 4 s in the series with Rattus norvegicus [2], 33 s in the series with Rattus norvegicus [3] and 13 s in the series on Rattus norvegicus [4]. Further, the Activity result in the series with Rattus norvegicus [8], in the series with Rattus norvegicus [9] and with Rattus norvegicus [6] was “Non-toxic” each time.

In series [10], `CN1CCC=C(C2CN(C(=O)c3ccccc3[N+](=O)[O-])CCO2)C1` (stereo unspecified) returned an IC50 of 618 µM. For the same compound, the Ki in [10] came to 126 µM. Moreover, the Activity was 0.65 pmol in series [11], “Non-toxic” in the series with Rattus norvegicus [8], “Non-toxic” in the series with Rattus norvegicus [9] and “Non-toxic” with Rattus norvegicus [6]. In addition, the outcome with Rattus norvegicus [7] and in the series on Rattus norvegicus [5] was Active. The Time is 10 s in the series on Rattus norvegicus [1], 5 s in the series with Rattus norvegicus [2], 66 s in the series with Rattus norvegicus [3] and 52 s with Rattus norvegicus [4].

With `CN1CCC=C(C2CN(C(=O)c3cccc([N+](=O)[O-])c3)CCO2)C1` (stereo unspecified), the outcome with Rattus norvegicus [7] and with Rattus norvegicus [5] was Active. The Time stood at 10 s in the series with Rattus norvegicus [1], 4 s in the series with Rattus norvegicus [2], 64 s with Rattus norvegicus [3] and 47 s in the series on Rattus norvegicus [4]. Further, the Activity result in the series on Rattus norvegicus [8], in the series on Rattus norvegicus [9] and with Rattus norvegicus [6] was “Non-toxic” each time.

With `CN1CCC=C(C2CN(C(=O)c3ccc([N+](=O)[O-])cc3)CCO2)C1` (stereo unspecified), the outcome with Rattus norvegicus [7] and with Rattus norvegicus [5] was Active. Besides, the Time with Rattus norvegicus [1] was determined as 10 s; in the series with Rattus norvegicus [2] it was 5 s; in the series on Rattus norvegicus [3], 64 s; in the series on Rattus norvegicus [4], 52 s. Further, the Activity entry with Rattus norvegicus [8], in the series on Rattus norvegicus [9] and in the series on Rattus norvegicus [6] was “Non-toxic” in each case.
